Data set [1] has as its system AMPK and Stat3 phosphorylation. In words: AMPK and Stat3 signaling in adipose tissue explants from Chga-KO mice. It is filed as cell-based. As to the method: FIG. 6. Regulation of AMPK and Stat3 signaling by CST in adipose tissue explants. Explants from Chga-KO mice were treated with saline or CST (100 nM for 30 min) and immunoblotted for pAMPK and AMPK (A). Adipose explants from WT and Chga-KO mice were immunoblotted for pAMPK and AMPK after treatment with saline or leptin (1 μM) for 30 min (B). pAMPK and AMPK (C) and pStat3 and Stat3 (D) signaling in adipose explants from WT and Chga-KO mice after treatment for 30 min with saline, CST (100 nM), leptin (1 μM) or leptin plus CST.
(§1) Adipose tissue explants were prepared as described (42). Epididymal fat pads from 12 hr fasted WT, Chga-KO, DIO and Ob/Ob mice with or without CST treatment were collected in Kreb-Ringer-phosphate (KRP) buffer containing 10 mM Hepes and 0.5% BSA. Tissues were minced to 1-2 mm size and treated with 100 nM CST, 1 μM leptin, or saline for 30 min (for signaling analysis) or 3 hr (for lipolysis and β-oxidation assays). Explants were also treated acutely with CST, leptin, a combination, or saline. At the end, incubation media were saved for analysis of glycerol and fatty acid release. Explants were washed prior to homogenization for immunoblotting and analysis of fatty acid oxidation.
(§2) Adipose tissue explants after treatments ex vivo and tissues from mice treated in vivo were homogenized in a buffer containing phosphatase and protease inhibitors (20 mM Tris/HCl (pH 7.5), 250 mM sucrose, 2 mM EDTA, 2 mM EGTA, 2 mM Na3VO4, 10 mM NaF, 2 mM Na4P2O7, 1 mM phenylmethylsulfonyl fluoride, 20 μg/ml leupeptin, 10 μg/ml aprotinin, and 1 μM LR-microcystin) as described (38,44). Homogenates were subjected to SDS-PAGE and immunoblotted. Primary antibodies for AMPK and Stat3 were from Cell Signaling Technology (Beverly, Mass.). The chemiluminescence kit was from Pierce (Rockford, Ill.).

The test system of data set [2] is primary adipocytes. In words: Lipolytic glycerol release from primary adipocytes. Format: cell-based, mice. The method, then:
Mice were fasted for 12 hr prior to blood draw. Triglycerides (TG) and non-esterified fatty acids (NEFA) were assayed using kits from Wako Diagnostics (Richmond, Va.). Glycerol was assayed using a kit from Sigma (St Louis, Mo.). Media from the explant cultures and mouse serum were analysed for glycerol and NEFA as a measure of lipolysis. ELISA kits were used to determine plasma levels of leptin, adiponectin (Millipore, Billerica, Mass.) and CST (Bachem, Torrance, Calif.). For CST assay, plasma samples and reference standards were passed through mini C18 columns and the flow-through fractions were assayed. The same kits were used for measurements in culture media.
Primary adipocytes were isolated from epididymal fat pads essentially as described (43). Adipose tissues from WT and Chga-KO mice were minced in Krebs-Ringer bicarbonate-Hepes (KRBH) buffer, pH 7.4, containing 10 mM bicarbonate, 30 mM Hepes, 200 nM adenosine, 2.5 mM glucose and 1% fatty-acid-free BSA, and digested for 30-40 min with Type I collagenase (10 mg/g tissue; Invitrogen, Carlsbad, Calif.) with gentle swirling in a 37° C. incubator. The digestion mixture was then filtered through a nylon strainer and centrifuged at 400×g for 1 min. The oily layer (released from broken cells) above floating fat cells was skimmed off, and fat cells were recovered from the top and washed three times with warm KRBH.

For data set [3], the system named is CST-KO mice. In words: CST supplementation in NCD-fed CST-KO mice. Format: in vivo. As to the method: FIG. 13. Changes in biochemical and physiological parameters in NCD-fed CST-KO mice after CST (5 μg/g BW) supplementation. […] Figures in parentheses indicate number of animals.
Data set [4] has as its system STAT3 and AMPK phosphorylation. In words: Stat3 and AMPK signaling in adipose explants from DIO mice. Conditions: CST in vivo, leptin 1 μM ex vivo 30 min. It is filed as cell-based. The method, then:
(§3) FIG. 9. Stat3 and AMPK signaling in the adipose tissue explants from DIO and Ob/Ob mice treated with saline, CST (in vivo) and leptin (ex vivo). Explants from DIO mice (A&B) and Ob/Ob mice (C&D) were incubated with saline or leptin (1 μM) for 30 min, homogenized and immunoblotted for phospho- and total Stat3 (A&C) as well as phospho- and total AMPK signals (B&D). Results are presented as the ratio of signal strength of phospho-over total.
as §1, §2

For data set [5] the following is noted: reference (8); cited from earlier work.
Data set [6] concerns STAT3 and AMPK phosphorylation. In words: Stat3 and AMPK signaling in adipose explants from Ob/Ob mice. Format: cell-based. The conditions noted are these: CST in vivo, leptin 1 μM ex vivo 30 min. As to the method: as §3, §1, §2
Data set [7] relates to adipose tissue explants from DIO mice. In words: Lipolysis and fatty acid oxidation in adipose explants of DIO mice. It is filed as cell-based. The method, then:
FIG. 8. Lipolysis and fatty acid oxidation in the adipose tissue explants of DIO and Ob/Ob mice after treatment with saline or CST for 16 days. Explants were incubated with saline or leptin (1 μM) for 3 hr and the concentrations of glycerol (A&C) and NEFA (B&D) released into the media from DIO (A&B) and Ob/Ob (C&D) explants were determined as a measure of lipolysis. Homogenates of the explants from DIO (E) and Ob/Ob […] were used to determine their capacity for oxidation of U-^14C-palmitate in response to the treatment with saline, CST, leptin and CST+leptin. The ^14CO2 released was captured and counted as the measure of fatty acid oxidation.
as §1
Oxidation of radiolabeled palmitate in the homogenates of adipose tissue explants as described previously (45). For oxidation studies of cultured cells, HepG2 (hepatocytes) and 3T3-L1 preadipocytes were obtained from ATCC and cultured following supplier's protocol. Confluent 3T3-L1 cultures were differentiated into adipocytes by treating with a cocktail of dexamethasone (100 nM), IBMX ([…]) and insulin (100 nM) for 10 days. Media were then switched to serum-free DMEM with 1% BSA. Hepatocytes were assayed for lipogenesis and fat oxidation in response to CST treatment. Serum-free cultures were treated with CST (100 nM) for 24 hr followed by a 2 hr incubation with U^14C-palmitate (0.5 μCi/ml). Fatty acid oxidation in cells was determined by modifying a published method (46). Specifically, the culture media in 24-well plates were acidified with 10% HClO4 after incubation with the labeled fatty acid and immediately covered with a thick filter paper sheet (cut to size) soaked in 2 N NaOH and placed underneath the plastic lid. The whole plate was sealed with parafilm. After further incubation for 2 hr, the filter paper sheet was marked as circles around the rim of the wells and then the circles were excised. The filter discs were counted to determine the amount of ^14CO2 absorbed in the papers. Cells in the culture wells were lysed in 1 N NaOH and protein content was assayed using Folin's reagent (BioRad, Hercules, Calif.).

Where [8] appears, read: CST-KO mice, CST 5 μg/g BW for 8 days.
Setting [9] is: CST in vivo 16 days, leptin 1 μM ex vivo 3 hr.

“Also recorded” adds a separate entry of the source. No end group written: not given here.

Regarding SSMKLSFRARAYGFRGPGPQL [CST], the “Stat3 phosphorylation, CST alone” value in data set [1] is “lack of CST stimulation of Stat3 phosphorylation”. For the same sequence, in data set [1] (CST plus leptin), the “leptin's ability to stimulate the phosphorylation of AMPK” value is reported as “restored” and the “leptin's ability to stimulate the phosphorylation of Stat3” value was “restored”. In addition, the “AMPK phosphorylation, CST alone” value in data set [1] (acute CST 100 nM 30 min) was “stimulated AMPK phosphorylation; also recorded: significantly stimulated pAMPK signaling”. The “effect on the lipolytic effect of isoproterenol” value in data set [2] (adipocytes, with isoproterenol 10 μM) is “potentiated”. Also, the “glycerol release (lipolysis)” value in data set [2] (primary adipocytes, substance alone) is given as “stimulated glycerol release”. For the same sequence, in data set [3] (setting [8]), the “plasma NEFA” value was “reduced; also recorded: decreased”, the “plasma TG” value is on record as “reduced; also recorded: decreased”, the plasma catecholamine entry is “reduced; also recorded: normalized high plasma catecholamines” and the plasma glycerol result is “increase; also recorded: increased plasma glycerol”. For the same sequence, in data set [3] (setting [8]), the plasma insulin result is on record as “reduced; also recorded: normalized the plasma insulin concentration to the WT level; also recorded: normalized hyperinsulinemia” and the plasma leptin result was “reduced; also recorded: normalized hyperleptinemia”. Moreover, the hypertensive phenotype result in data set [3] (CST-KO mice, CST supplementation) is reported as “normalized”. Besides, the “glucose tolerance by IP-GTT” value in data set [3] (NCD-fed CST-KO mice, CST 5 μg/g BW for 8 days) is reported as “restored glucose tolerance; also recorded: improved glucose tolerance; also recorded: improved insulin resistance”. In addition, the “insulin sensitivity / glucose tolerance by IP-ITT” value in data set [3] (NCD-fed CST-KO mice, CST supplementation) is “improved insulin sensitivity; also recorded: restored glucose tolerance; also recorded: improved insulin resistance”. Besides, in data set [4], the AMPK phosphorylation entry is reported as “not AMPK phosphorylation” and the STAT3 phosphorylation result is given as “stimulated only STAT3 phosphorylation”. For the same sequence, the protease degradation entry in data set [5] is recorded as “susceptible to complete protease degradation”. For the same sequence, in data set [6], the STAT3 phosphorylation entry is reported as “CST stimulation of STAT3 phosphorylation”. The palmitate oxidation entry in data set [7] was “neither CST nor leptin alone stimulated oxidation”. Also, in data set [7] (setting [9]), the “NEFA release in the media” value is listed as “not significant” and the “glycerol release in the media” value was “can release some glycerol in the media”.
